Laboratory results taken from publication PMC8877291, “Design and Synthesis of Arylpiperazine Serotonergic/Dopaminergic Ligands with Neuroprotective Properties” (Molecules, 2022).
“And” between values parts separate entries of the source, which are not always exact repeats. Equal values may be shown once.

Experiments:
[1] = biological target: T1, serotonin 5-HT1A receptor (Homo sapiens, UniProt P08908); test: 5-HT1A receptor radioligand competition binding ([3H]-8-Hydroxy-DPAT); details: for Ki ratio of the trimethylene and tetramethylene homologs at 5-HT1A: Ki of a (trimethylene) / Ki of b (tetramethylene) homolog, given as a/b; for Ki: human cloned receptor, HEK293 membranes, 1 nM [3H]-8-Hydroxy-DPAT, ± S.E.M., n = 3 in duplicate, read-out: Affinity Ki 5-HT1A
T1 construct: expressed in transfected cells
T1 sequence (P08908 1-422): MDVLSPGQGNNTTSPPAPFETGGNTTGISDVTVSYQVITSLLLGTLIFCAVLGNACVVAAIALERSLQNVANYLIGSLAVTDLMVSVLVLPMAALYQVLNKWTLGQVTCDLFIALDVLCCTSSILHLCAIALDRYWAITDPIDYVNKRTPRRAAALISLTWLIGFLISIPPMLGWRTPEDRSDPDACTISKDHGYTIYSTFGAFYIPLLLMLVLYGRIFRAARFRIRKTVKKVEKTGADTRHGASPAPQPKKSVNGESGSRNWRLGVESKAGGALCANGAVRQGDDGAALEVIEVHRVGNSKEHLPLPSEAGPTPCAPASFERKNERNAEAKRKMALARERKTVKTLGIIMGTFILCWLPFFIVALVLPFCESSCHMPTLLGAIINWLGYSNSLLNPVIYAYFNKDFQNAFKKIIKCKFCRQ
Protocol: As a first step, competition radioligand binding assays were carried out for all the compounds at the single concentration of 10 µM, on membrane preparations from stable cell lines heterologously expressing the human cloned 5-HT1A, 5-HT2A, or 5-HT7 receptors. […] For the affinity determination at dopamine receptor subtypes, membrane fractions of human dopamine D2s, D3, D1, and D5 receptor-expressing cells were used. They were co-incubated with [^3H]spiperone (for D2s and D3 receptor) or [^3H]SCH23390 (for D1 and D5 receptor) and appropriate concentrations of test compound for 120 min. Bound radioligand was separated from the free ligand using filtration. Radioactivity was measured by liquid scintillation counting.
The affinity of the compounds for serotonin 5-HT1A receptor was evaluated in membrane preparations from HEK293 cells stably expressing the human cloned receptor, following previously described procedures with minor modifications. Competition binding experiments were performed using 1 nM [^3H]-8-Hydroxy-DPAT (1 mCi/mL, PerkinElmer NET929250UC) as radioligand. Nonspecific binding was assessed in the presence of 10 µM serotonin. […] Assays were carried out in duplicate in 96-well assay plates, in assay buffer (50 mM Tris-HCl, 5 mM MgSO4, pH = 7.4). Assay mixtures were incubated at 37 °C for 120 min, followed by filtration through GF/C glass filter plates, and washed with ice-cold wash buffer (50 mM Tris-HCl, pH = 7.4).

[2] = biological target: T2, serotonin 5-HT2A receptor (Homo sapiens, UniProt P28223); test: 5-HT2A receptor radioligand competition binding ([3H]-ketanserin); details: human cloned receptor, CHO-K1 membranes, 1 nM [3H]-ketanserin; ± S.E.M., n = 3 in duplicate; read-out: Affinity Ki 5-HT2A
T2 construct: expressed in transfected cells

[3] = Cytotoxicity in SH-SY5Y cells (MTT assay); type: cell-based, human; details: human, SH-SY5Y neuroblastoma cells, MTT, 0.1 to 100 μM, ± S.E.M.
Protocol: Initially, the cytotoxicity of the target compounds was assessed by treating SH-SY5Y cells for 48 h with various concentrations of compounds (0.1 to 100 μM).
SH-SY5Y neuroblastoma cells (cat. CRL-2266, ATCC) were cultured in a 1:1 mixture of Eagle’s Minimum Essential Medium (cat. 15-010-CVR, Corning) and Ham’s F12 medium (cat. 10-080-CVR, Corning). This medium was supplemented with 10% (v/v) Fetal Bovine Serum (cat. 35-079-CV, Corning), 1% (v/v) Glutamine (cat. ECB3000D, Euro Clone) and 1% (v/v) Penicillin—Streptomycin (cat.30-002-CI, Corning). Cells were cultivated at 37 °C with 5% CO2 at saturated humidity.
Determination of cell growth was performed using the MTT assay at 48 h. On day 1, 25,000 cells/well were seeded into 96-well plates in a volume of 100 μL. On day 2, the various drug concentrations ([…]–100 μM) were added. In all the experiments, the various drug-solvents (EtOH, DMSO) were added in each control to evaluate possible solvent cytotoxicity. After the established incubation time with drugs (48 h), MTT (0.5 mg/mL) was added to each well, and after 3–4 h incubation at 37 °C, the supernatant was removed. The formazan crystals were solubilized using 100 μL of DMSO/EtOH (1:1, v/v) and the absorbance values at 570 and 630 nm were determined on the microplate reader Victor 3 (PerkinElmer Life Sciences, Waltham, MA, USA).

[4] = Stability assay in rat liver microsomes; type: in vitro ADME; details: NADPH-regenerating system; for remaining at 30 min, 10 μM: pH 7.4, rat liver microsomes, 30 min incubation, read-out: Metabolic Stability (percentage of recovery of the parent compound); for in vitro metabolic stability (in words): rat microsomes, 30 min
Protocol: To evaluate the susceptibility to first-pass oxidative metabolism, the leading cause of metabolic degradation in vivo [17] the target compounds were incubated with rat liver microsomes. The turnover of the parent compound was assessed as the percentage of the parent compound recovered after 30 min of incubation with microsomes in the presence of an NADPH-regenerating system.
Test compounds were pre-incubated at 37 °C with rat liver microsomes (Tebu-Bio, Milan, Italy) (1.0 mg/mL microsomal protein) at 10 μM final concentration in 100 mM potassium phosphate buffer (pH 7.4) for 10 min. Metabolic reactions were initiated by the addition of the NADPH regenerating system (containing 10 mM NADP, 50 mM glucose-6-phosphate, and 10 unit/mL glucose-6-phosphate dehydrogenase, final glucose-6-phosphate dehydrogenase concentration, 1 unit/mL). After 30 min incubation, the reaction mixture was quenched by adding an equal volume of cold acetonitrile containing the internal standard. A test compound incubated with microsomes without NADPH regenerating system was included. Quenched samples were centrifuged at 4500 rpm for 15 min and the supernatants were injected for quantification analysis. Samples (100 μL) were analyzed by using an Agilent 1260 Infinity Binary LC System equipped with a diode array detector (Open Lab software was used to analyze the chromatographic data) and a Phenomenex Gemini C-18 column (250 mm × 4.6 mm, 5 μm particle size). The samples were eluted using CH3CN/20 mM ammonium formate pH 5.5 (7:3, v/v) as eluent (volumetric flow rate =1 mL/min). Concentrations were quantified by measuring the area under the peak.
The percentage of the parent compound remaining after a 30-min incubation was calculated according to the equation:% of parent compound remaining after 30 min = Cparent/Ccontrol × 100(1) where Cparent is ligand concentration after incubation with microsome fraction and NADPH regenerating system and Ccontrol is ligand concentration after incubation with microsome fraction only.

dopamine D3 receptor = dopamine D3 receptor (Homo sapiens, UniProt P35462); test: Dopamine D3 receptor competition binding ([3H]spiperone)
Sequence of dopamine D3 receptor (P35462 whole entry): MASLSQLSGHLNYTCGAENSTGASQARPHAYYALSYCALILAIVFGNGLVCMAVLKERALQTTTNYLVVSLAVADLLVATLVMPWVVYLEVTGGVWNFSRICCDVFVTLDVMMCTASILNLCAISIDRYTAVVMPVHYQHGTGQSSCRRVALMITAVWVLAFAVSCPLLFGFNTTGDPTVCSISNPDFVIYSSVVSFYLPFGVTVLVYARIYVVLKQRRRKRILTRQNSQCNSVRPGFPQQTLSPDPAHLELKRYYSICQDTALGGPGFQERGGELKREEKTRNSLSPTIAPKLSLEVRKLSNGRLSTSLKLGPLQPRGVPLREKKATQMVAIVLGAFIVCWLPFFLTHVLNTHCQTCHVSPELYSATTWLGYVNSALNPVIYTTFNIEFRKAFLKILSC
Protocol: Competition binding experiments at dopamine D2s and D3 receptor were performed to determine the affinity of the compounds. […] Membrane preparations of transfected CHO-K1 cells stably expressing the human D2s or D3 receptor were performed according to Bautista-Aguilera et al. [26]. The competition binding experiments were conducted as previously reported [26, 27]. Briefly, membrane fractions (D2sR: 25 µg/200 µL; D3R: 20 µg/200 µL) were incubated with [^3H]spiperone (0.2 nM) and test compound for 120 min at room temperature. […] Non-specific binding was determined in the presence of 10 µM haloperidol. Haloperidol was also used as reference compound. Separation of the bound ligand from the free ligand was conducted by filtration through GF/B filters using deionized water.
Data of at least three independent experiments in triplicate were analyzed using GraphPad Prism 8.1 (San Diego, CA, USA). Binding curves were fitted to a non-linear regression model (one-site competition). Ki values were calculated from IC50 values using the Cheng–Prusoff equation. The statistical calculations were performed on –log(Ki).

T2 sequence (P28223 whole entry): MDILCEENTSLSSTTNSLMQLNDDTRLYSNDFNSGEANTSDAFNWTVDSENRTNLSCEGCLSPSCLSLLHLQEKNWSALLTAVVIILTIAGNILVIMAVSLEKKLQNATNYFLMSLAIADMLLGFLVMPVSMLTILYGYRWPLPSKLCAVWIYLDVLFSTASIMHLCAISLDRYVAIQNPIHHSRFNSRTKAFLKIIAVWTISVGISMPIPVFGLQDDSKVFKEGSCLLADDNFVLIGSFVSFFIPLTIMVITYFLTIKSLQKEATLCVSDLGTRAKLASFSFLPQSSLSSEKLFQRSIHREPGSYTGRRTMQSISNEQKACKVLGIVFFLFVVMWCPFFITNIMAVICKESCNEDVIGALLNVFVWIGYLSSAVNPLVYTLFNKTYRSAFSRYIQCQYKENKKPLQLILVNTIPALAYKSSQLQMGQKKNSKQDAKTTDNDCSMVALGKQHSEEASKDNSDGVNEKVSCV

Row | Compound | Ki ratio of the trimethylene and tetramethylene homologs at 5-HT1A [1] | Ki [1] | Ki [2] [nM] | EC50 at 48 h [3] [nM] | remaining at 30 min, 10 μM [4] [%] | Ki (dopamine D3 receptor) [nM] | in vitro metabolic stability (in words) [4]
1 | CC1Oc2ccc(OCCCN3CCN(c4ncccc4-c4ccncc4)CC3)cc2NC1=O (centres unmarked) [Compound 8a, 6-(3-(4-([3,4’-Bipyridin]-2-yl)piperazin-1-yl)propoxy)-2-methyl-2H-benzo[b][1,4]oxazin-3(4H)-one] | 0.7 | < 17.6 nM and 13.1 nM | 782 ± 119 | 32900 ± 3500 | 4 | 1220 | 
2 | CC1Oc2ccc(OCCCCN3CCN(c4ncccc4-c4ccncc4)CC3)cc2NC1=O (centres unmarked) [Compound 8b, 6-(4-(4-([3,4’-Bipyridin]-2-yl)piperazin-1-yl)butoxy)-2-methyl-2H-benzo[b][1,4]oxazin-3(4H)-one] |  | < 17.6 nM and 17.6 nM | 611 ± 87 | 25500 ± 2200 | 14 | 691 | 
3 | COc1ccc(-c2cc(F)ccc2N2CCN(CCCCn3ncc(=O)n(C)c3=O)CC2)cc1 [Compound 9b, 2-(4-(4-(5-Fluoro-4’-methoxy-[1,1’-biphenyl]-2-yl)piperazin-1-yl)butyl)-4-methyl-1,2,4-triazine-3,5(2H,4H)-dione] |  | 23.9 ± 4.9 nM | 39.4 ± 7.4 | 51900 ± 4300 | 45 | > 10000 | 
4 | Cn1c(=O)cnn(CCCN2CCN(c3ccc(F)cc3-c3ccc(C#N)cc3)CC2)c1=O [Compound 10a, 5’-Fluoro-2’-(4-(3-(4-methyl-3,5-dioxo-4,5-dihydro-1,2,4-triazin-2(3H)-yl)propyl)piperazin-1-yl)-[1,1’-biphenyl]-4-carbonitrile] |  | 1090 ± 154 nM | 96.8 ± 11 | 28200 ± 3200 | 5 | > 10000 | 
5 | Cn1c(=O)cnn(CCCCN2CCN(c3ccc(F)cc3-c3ccc(C#N)cc3)CC2)c1=O [Compound 10b, 5’-Fluoro-2’-(4-(4-(4-methyl-3,5-dioxo-4,5-dihydro-1,2,4-triazin-2(3H)-yl)butyl)piperazin-1-yl)-[1,1’-biphenyl]-4-carbonitrile] |  | 43.4 ± 6.2 nM | 80.7 ± 3.1 | 34300 ± 2500 | 26 | > 10000 | borderline stability value
6 | Cn1c(=O)cnn(CCCN2CCN(c3ncccc3-c3ccncc3)CC2)c1=O [Compound 11a, 2-(3-(4-([3,4’-Bipyridin]-2-yl)piperazin-1-yl)propyl)-4-methyl-1,2,4-triazine-3,5(2H,4H)-dione] | 52 | 269 ± 18 nM | > 10000 | > 100000 | 4 | > 10000 | 
7 | Cn1c(=O)cnn(CCCCN2CCN(c3ncccc3-c3ccncc3)CC2)c1=O [Compound 11b, 2-(4-(4-([3,4’-Bipyridin]-2-yl)piperazin-1-yl)butyl)-4-methyl-1,2,4-triazine-3,5(2H,4H)-dione] |  | < 17.6 nM and 5.19 nM | > 10000 | > 100000 | 3 | > 10000 | 
8 | Cc1cc(=O)oc2cc(OCCCN3CCN(c4ncccc4-c4ccncc4)CC3)ccc12 [Compound 12a, 7-(3-(4-([3,4’-Bipyridin]-2-yl)piperazin-1-yl)propoxy)-4-methyl-2H-chromen-2-one] | 3.7 | 41.5 ± 3 nM | 315 ± 44 | 35200 ± 4100 | 19 | 1080 | borderline stability value
9 | Cc1cc(=O)oc2cc(OCCCCN3CCN(c4ncccc4-c4ccncc4)CC3)ccc12 [Compound 12b, 7-(4-(4-([3,4’-Bipyridin]-2-yl)piperazin-1-yl)butoxy)-4-methyl-2H-chromen-2-one] |  | < 17.6 nM and 11.3 nM | ~1420 | 47900 ± 3500 | 14 | 424 | 
